Experimental data taken from US20230000892A1, “Solution, Lotion, Gel, and Cream for Use to Prevent Razor Bumps” (priority 2021, published 2023).

Tested on: razor bumps
Experiment: proof of concept use of acne gels, creams, suspension and lotions immediately after shaving to prevent razor bumps
Assay type: in vivo, human
Conditions: concentration down to at least 0.75% within the gel

clindamycin phosphate
adequacy of lower concentration for preventing razor bumps: sufficiently adequate
